Earlier results as cited in patent US11261215B2, “Somatostatin prodrugs” (YISSUM RESEARCH DEVELOPMENT COMPANY OF THE HEBREW …, priority 2017, dated 2022).
Numbered stars: 1 amine (or outer) side, 2 acyl side, 3 side chain; on linkers, the order of the positions; unused ones are H or OH. Bridge positions count the residues as written; N and C are the ends. Square brackets hold non-standard residues; d marks the D form. Ends that are not written are not given here. PheC3 = Phe building unit, N-alpha-omega-functionalized derivative for backbone cyclization; N(2-aminoethyl)Phe = O=C([C@H](Cc1ccccc1)N(CCN[*:3])[*:1])[*:2]; dNMeW = CN[C@H](Cc1c[nH]c2ccccc12)C(=O)O; NMeF = CN[C@@H](Cc1ccccc1)C(=O)O; NMeK = CN[C@@H](CCCCN)C(=O)O

How the values were obtained:
somatostatin receptors = conditions: cited from earlier work
[1] = test system: GH, glucagon and insulin secretion; conditions: cited from earlier work
SSTR5 = SSTR5 (Homo sapiens, UniProt P35346); conditions: cited from earlier work
Sequence of SSTR5 (P35346 whole entry, species assumed): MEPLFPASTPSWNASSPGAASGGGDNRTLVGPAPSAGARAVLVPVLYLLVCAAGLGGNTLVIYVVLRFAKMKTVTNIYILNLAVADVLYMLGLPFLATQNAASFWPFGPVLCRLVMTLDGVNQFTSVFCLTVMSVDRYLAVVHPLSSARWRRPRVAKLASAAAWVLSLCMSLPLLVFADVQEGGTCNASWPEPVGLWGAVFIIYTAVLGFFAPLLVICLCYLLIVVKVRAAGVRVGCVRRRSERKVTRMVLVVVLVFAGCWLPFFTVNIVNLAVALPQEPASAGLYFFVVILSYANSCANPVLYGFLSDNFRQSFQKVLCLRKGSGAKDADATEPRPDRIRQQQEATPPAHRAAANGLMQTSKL

[2] = test system: amylase and lipase release from the pancreas; conditions: in vivo; cited from earlier work
[3] = rats, oral administration; cited from earlier work

## PheN2-Tyr-DTrp-Lys-Val-PheC3-Thr-NH2 ([N(2-aminoethyl)Phe]Y[dW]KV[PheC3]T-NH2; bridge 1-6; not fully specified (bridges); printed as PheN2-Tyr-DTrp-Lys-Val-PheC3-Thr-NH2) [PTR-3046]
Somatostatin receptors
  selectivity toward the somatostatin receptors: selective toward the SSTR5
[1]; in vivo
  GH or glucagon release: without inhibiting
SSTR5
  IC50: nanomolar range
[2]
  bombesin- and caerulein-induced amylase and lipase release from the pancreas: inhibits

## GABA-Phe-Trp-DTrp-Lys-Thr-Phe-GlyC3-NH2 (XFWWKTFG; not fully specified; GABA, backbone cyclized, C-terminal amide; MOD_RES (1)..(1) 4Abu, GABA; MOD_RES (1)..(8) backbone-to-end cyclization between the N-alpha-omega-functionalized derivative of GlyC3 and the N-terminus; MOD_RES (4)..(4) D-Trp; MOD_RES (8)..(8) AMIDATION; MOD_RES (8)..(8) GlyC3 building unit) [PTR-3173]
Somatostatin receptors
  selectivity toward the somatostatin receptors: selective towards the SSTR2, SSTR4 and SSTR5
[1]; at physiological concentrations
  effect on insulin secretion: no effect
[1]; in vivo
  GH:insulin potency ratio: > 10,000
  potency in the in vivo inhibition of GH relative to that of glucagon: 1000 fold

## PheC3-Cys-Phe-DTrp-Lys-Thr-Cys-Phe-PheN3-X (FCFWKTCFF; not fully specified; backbone cyclized; MOD_RES (1)..(1) PheC3 building unit; MOD_RES (1)..(9) backbone cyclization between the N-alpha-omega- functionalized derivative of X1 and the N-alpha-omega- functionalized derivative of X9; DISULFID (2)..(7) bridge; MOD_RES (4)..(4) D-Trp; MOD_RES (9)..(9) PheN3 building unit; MOD_RES (9)..(9) AMIDATION) [PTR-3205]
Somatostatin receptors
  selectivity toward the somatostatin receptors: selective towards SSTR2

## c(PF(NMe)w(NMe)KT(NMe)F) (cyclo(PF[dNMeW][NMeK]T[NMeF]); SMILES C[C@@H](O)[C@@H]1NC(=O)[C@H](CCCCN)N(C)C(=O)[C@@H](Cc2c[nH]c3ccccc23)N(C)C(=O)[C@H](Cc2ccccc2)NC(=O)[C@@H]2CCCN2C(=O)[C@H](Cc2ccccc2)N(C)C1=O) [Somato8]
[3]
  calculated absolute oral bioavailability: ~10%
